Several values for one entry are separate records, joined by “and”; a condition that tells them apart may be missing. Equal values may be shown once. Read-outs that look alike come from different tables or passages of the source.
Key:
rat brain MAO-B = biological target: T1, rat brain MAO-B (Rattus norvegicus, UniProt P19643); assay: biochemical; conditions: for inhibition at 10 µM: read-out: percent inhibition MAO-B
T1 construct: from tissue; host or cells: rat brain homogenate
T1 sequence (P19643 1-520): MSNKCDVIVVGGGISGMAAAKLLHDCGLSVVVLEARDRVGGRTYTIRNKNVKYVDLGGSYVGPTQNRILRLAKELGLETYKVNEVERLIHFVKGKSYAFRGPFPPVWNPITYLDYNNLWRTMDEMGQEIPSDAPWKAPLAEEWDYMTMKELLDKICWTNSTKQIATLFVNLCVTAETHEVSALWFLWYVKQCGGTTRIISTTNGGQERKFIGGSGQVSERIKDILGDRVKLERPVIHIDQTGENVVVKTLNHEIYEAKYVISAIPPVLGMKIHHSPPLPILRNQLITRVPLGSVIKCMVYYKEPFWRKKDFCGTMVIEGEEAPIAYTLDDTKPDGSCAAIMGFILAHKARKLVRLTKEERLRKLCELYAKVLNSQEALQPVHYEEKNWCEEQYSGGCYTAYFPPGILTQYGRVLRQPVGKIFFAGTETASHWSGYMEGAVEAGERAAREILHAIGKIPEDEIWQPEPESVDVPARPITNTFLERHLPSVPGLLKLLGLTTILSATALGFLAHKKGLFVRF

[1] = biological target: T2, total cholinesterase (ChE) (Rattus norvegicus, UniProt P37136); assay: Total cholinesterase inhibition in rat brain homogenates (Ellman); type: biochemical
T2 sequence (P37136 32-614): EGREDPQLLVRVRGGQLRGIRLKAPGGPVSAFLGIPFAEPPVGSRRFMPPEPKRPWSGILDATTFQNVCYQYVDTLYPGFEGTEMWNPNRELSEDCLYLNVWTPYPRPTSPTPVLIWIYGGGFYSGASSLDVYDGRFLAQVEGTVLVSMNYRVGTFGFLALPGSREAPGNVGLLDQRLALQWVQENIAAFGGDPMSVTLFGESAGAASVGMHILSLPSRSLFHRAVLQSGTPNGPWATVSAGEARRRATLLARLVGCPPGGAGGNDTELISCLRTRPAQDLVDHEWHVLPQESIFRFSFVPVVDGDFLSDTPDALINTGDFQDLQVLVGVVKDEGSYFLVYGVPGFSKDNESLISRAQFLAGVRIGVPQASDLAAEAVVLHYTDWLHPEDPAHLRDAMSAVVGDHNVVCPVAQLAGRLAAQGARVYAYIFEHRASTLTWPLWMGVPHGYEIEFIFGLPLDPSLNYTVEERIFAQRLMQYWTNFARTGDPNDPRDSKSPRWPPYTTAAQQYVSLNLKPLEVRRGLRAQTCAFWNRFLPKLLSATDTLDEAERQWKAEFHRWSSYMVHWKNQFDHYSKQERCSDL
Protocol: Cholinesterase activity was determined in rat brain homogenate following incubation with varying concentrations of the multifunctional pro-chelators of the invention (also referred to herein as “carbamates”).
Ellman's colorimetric method was adapted for determination of total cholinesterase (ChE) and butyrylcholinesterase (BuChE) activities in rat brain homogenates. Brain tissue from adult Wistar rats was homogenized at 2% w/v (or 10% w/v, for BuChE) in 0.1 M sodium phosphate buffer, pH 7.4, with added NaCl 58.5 g/l and Triton X-100 0.05% v/v. Aliquots of homogenate (20 μl) were incubated with the test compounds for designed time intervals in phosphate buffer pH 7.4, before addition of 5,5′-dithiobis(2-nitrobenzoic) acid and either 1 mM acetylthiocholine iodide or 10 mM butyrylthiocholine iodide (Sigma, St. Louis, Mo.). The reaction was run at 37° C. in a final volume of […] in 96-well microplates and was followed at 412 nm for 5 min with a plate reader. In every experiment, cholinesterase-independent (nonspecific) substrate hydrolysis was determined by including one experimental group treated with tacrine 30 μM. Appropriate tissue and reagent blanks were also included. Reaction velocities were determined in three or four replicates per condition; these were averaged and expressed as percent activity relative to control (solvent), after subtracting the rate of nonspecific hydrolysis.
The results are the mean SEM, n=3 in triplicates. ND—not determined.

AChE = AChE (Homo sapiens, UniProt P22303); assay: Conversion of pro-chelator by AChE into active chelator (UV-vis and MS of extract); type: biochemical; conditions: extract from a solution of AChE titrated with metal salts
Chain of AChE (P22303 32-614): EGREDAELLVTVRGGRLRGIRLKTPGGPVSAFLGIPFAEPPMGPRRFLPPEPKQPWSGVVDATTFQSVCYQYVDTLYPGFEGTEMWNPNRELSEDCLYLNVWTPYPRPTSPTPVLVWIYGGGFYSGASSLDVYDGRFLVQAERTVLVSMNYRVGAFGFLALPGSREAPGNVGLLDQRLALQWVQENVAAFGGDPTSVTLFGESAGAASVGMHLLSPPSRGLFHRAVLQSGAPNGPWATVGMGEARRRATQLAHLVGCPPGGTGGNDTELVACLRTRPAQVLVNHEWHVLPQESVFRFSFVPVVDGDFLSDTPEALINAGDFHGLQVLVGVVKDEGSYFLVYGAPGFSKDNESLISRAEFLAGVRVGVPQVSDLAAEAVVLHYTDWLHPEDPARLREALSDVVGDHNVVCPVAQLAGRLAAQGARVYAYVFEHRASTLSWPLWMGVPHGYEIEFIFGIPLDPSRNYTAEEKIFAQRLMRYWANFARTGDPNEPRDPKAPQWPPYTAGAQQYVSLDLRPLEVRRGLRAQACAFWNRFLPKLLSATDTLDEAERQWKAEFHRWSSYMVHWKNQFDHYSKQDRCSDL
Protocol: When ZnCl2, or CuSO4 were titrated into the extract, two new bands at around 365 nm or 375 nm appeared, corresponding to the formation of […], respectively. […] This finding was reinforced by mass spectrometry analysis of the extract, which gave a value of m/z 227.22, corresponding to m/z of [M30+H]^+.
When FeCl3 or FeSO4 were titrated to an extract from a solution of AChE into which compound 23 was added, new bands at around 460 nm and 590 nm appeared exactly matching the absorption of HLA20−Fe in FIG. 2A. Titration of CuSO4 or ZnCl2 to the extract introduced new bands at around 370 nm or 360 nm, corresponding to the absorption of the complexes […], respectively.

[2] = IC50 MAO-B, rat brain homogenate in vitro, mean SEM, n=3 in triplicates

C#CCN(C)Cc1ccc(OC(=O)N(C)CC)c2ncccc12 [Compound 3, 5-((methyl(propargyl)amino)methyl)quinolin-8-yl ethyl(methyl)carbamate] showed an inhibition at 10 µM (rat brain MAO-B) of 9% and an IC50 ([1]; rat brain homogenates, mean SEM, n=3 in triplicates) of 9.8 µM.

With C#CCN(C)Cc1ccc(OC(=O)N2CCCC2)c2ncccc12 [Compound 5, 5-((methyl(propargyl)amino)methyl)quinolin-8-yl pyrrolidine-1-carboxylate] the IC50 (rat brain MAO-B; [2]) was 5060 nM and 5600 nM.

C#CCN(C)Cc1ccc(OC(=O)N2CCN(Cc3ccccc3)CC2)c2ncccc12 [Compound 13, 5-((methyl(propargyl)amino)methyl)quinolin-8-yl 4-benzyl piperazine-1-carboxylate] was tested, and the IC50 (rat brain MAO-B; [2]) was 84 nM and the “conversion by AChE to active chelator” value (AChE) was “converted by AChE back into M30”.

With C#CCC1CCN(Cc2ccc(OC(=O)N(C)C)c3ncccc23)CC1 [Compound 23, 5-((4-(propargyl)piperidin-1-yl)methyl)quinolin-8-yl dimethylcarbamate] the “inhibitory effect on MAO-B” value (rat brain MAO-B; rat brain homogenate) was “minor to none inhibitory effects”, the inhibition at 10 µM (rat brain MAO-B) was 3% and the “conversion by AChE to active chelator” value (AChE) was “converted compound 23 back into HLA20”.

With C#CCN(C)Cc1ccc(O)c2ncccc12 [M30, reference compound] the IC50 (rat brain MAO-B) was 57 ± 10 nM and the IC50 [1] was 114 µM.

— patent US8802675B2, “Neuroprotective multifunctional compounds and pharmaceutical compositions comprising them” (priority 2009, dated 2014)
